Assays:
[1] = biological target: T1, dihydrolipoamide dehydrogenase (Homo sapiens, UniProt P09622); assay: DARTS proteomic assay; format: binding; settings: FIG. 15
T1 construct: HEK293T cells were lysed using M-PER; endogenous in cells; host or cells: HEK293T lysate
Excerpt: The unique properties of compound it prompted an in-depth analysis to explore its potential novel targets.
Dihydrolipoamide dehydrogenase (DLD) is a mitochondrial enzyme involved in metabolic process that is encoded by the DLD gene. Not many studies have been done to identify the direct involvement of this enzyme in cancers. However, a deregulated level of DLD may modulate mitochondrial-mediated diseases and may impair normal metabolic processes. […] The presently disclosed data is encouraging and indicates compound it may potentially be used to target multiple key enzymes that are involved in tumor development and progression.
A DARTS assay was used to assess the binding of compound 1t. HEK293T cells were lysed using M-PER (Thermo Scientific, Inc.) supplemented with protease and phosphatase inhibitors (Lysis buffer). 4.7 mg/mL of protein and TNC buffer (10 mM Tris, 140 mMNaCl, 5 mM CaCl2)) was added, compound it was diluted in DMSO to 3 different concentrations (0.01 μM, 0.1 μM, 1 μM) and incubated for one hour at room temperature. Trypsin (Promega) was added and incubated for 3 hours at 37° C. Thereafter, M-PER lysis buffer was added and the samples were concentrated with Microcon 10K centrifugal filters. The proteins were identified by gel electrophoresis liquid chromatography mass spectroscopy (GelLCMS).

[2] = biological target: T2, thioredoxin reductase (Homo sapiens, UniProt Q16881); assay: DARTS proteomic assay; format: binding; settings: FIG. 9
T2 construct: HEK293T cells were lysed using M-PER; endogenous in cells; host or cells: HEK293T lysate
Excerpt: (§1) The unique properties of compound it prompted an in-depth analysis to explore its potential novel targets. […] Mammalian thioredoxin reductases (TrxRs) are selenocysteine-containing homodimericflavin enzymes that catalyze the NADPH-dependent reduction of oxidized thioredoxins. […] Therefore, inhibiting this enzyme should form the foundation of a novel anticancer lead drug candidate. Many drug companies around the world are trying to design drugs that target this enzyme, however, until now there is no clinical anti-cancer drug that specifically targets TrxR although some drugs have been reported to inhibit TrxR to varying extents. […] One of the hurdles in developing a successful TrxR inhibitor is its cross reactions with thiols present inside the cells. […] Moreover, according to many reports, inhibiting excessive TrxR levels will also […] of Parkinson's disease as well as Alzheimer's disease. On the other hand, increased aminopeptidases are typically observed in many cancer tissues and play a key role in tumor cell proliferation, angiogenesis, and tumor invasiveness by regulating extracellular matrix degradation and cell signaling and recognition. […] A DARTS assay was used to assess the binding of compound 1t. HEK293T cells were lysed using M-PER (Thermo Scientific, Inc.) supplemented with protease and phosphatase inhibitors (Lysis buffer). 4.7 mg/mL of protein and TNC buffer (10 mM Tris, 140 mMNaCl, 5 mM CaCl2)) was added, compound it was diluted in DMSO to 3 different concentrations (0.01 μM, 0.1 μM, 1 μM) and incubated for one hour at room temperature. Trypsin (Promega) was added and incubated for 3 hours at 37° C. Thereafter, M-PER lysis buffer was added and the samples were concentrated with Microcon 10K centrifugal filters. The proteins were identified by gel electrophoresis liquid chromatography mass spectroscopy ([…]).

[3] = biological target: T3, cytosol aminopeptidase (Homo sapiens, UniProt P28838); assay: DARTS proteomic assay; format: binding
T3 construct: HEK293T cells were lysed using M-PER; endogenous in cells; host or cells: HEK293T lysate
Excerpt: as §1

[4] = tested on: MCF7; assay: Full dose-response, survival of cancer cell line (SRB assay); format: cell-based; settings: Homo sapiens, breast cancer, 48 hours of drug treatment, average of three individual experiments
Excerpt: (§2) Dulbecco's Modified Eagles Medium (DMEM), RPMI 1640 medium and propidium iodide (PI) were purchased from Sigma Aldrich (Darmstadt, Germany). For western blot, the antibodies; c-Myc, p^53, p^21, Bax, Bid, BclxL, GAPDH, caspase-3, caspase-9, p-ATM, p-ATR, p-Chk1, p-Chk2, p-P^53, and p-H2AX along with respective mouse/rabbit secondary antibodies were purchased from Cell Signaling Technology (Danvers, MA, USA). FITC Annexin V Apoptosis kit was purchased from BD Biosciences (New Jersey, USA). All other chemicals and solvents used were of standard analytical grade. The stock solutions of SIMR compounds were made in 100% DMSO and working solutions for treatments never exceeded >1% DMSO. The cell lines were gifted from Radiobiology and Experimental Radio Oncology lab, University Cancer Center, Hamburg University, Hamburg, Germany. F180 and HCT116 cells were cultured in DMEM media while MCF-7 and SKBR3 cells were cultured in RPMI along with 10% FBS and 5% CO2 in a humidified incubator at 37° C. The cells were grown on polystyrene T-75 (75 cm^2) culture flasks and all the experiments were performed at ˜70% cell confluency.
(§3) SRB assay was performed on DU-143 and MCF-7 cells in order to find out the sub-lethal dosage (IC50) of the synthesized compounds based on reported method with minor modifications. Briefly, 1×10^4 cells were seeded in a 96-well plate overnight and were treated with different concentrations of compounds and incubated further for 48 hours. The wells which were devoid of any treatment served as controls. After the treatment time, the plates were incubated with 50% trichloroacetic acid (TCA) at 4° C. for 1 hour. The cells were then washed, dried and exposed to 1% acetic acid for short period. Two hundred microliters of 10 mMtris base solution was then added with 10 min incubation after drying the plates and the OD was read at 492 nm by using a Multiskan™ GO (Thermo Scientific, USA) microplate Spectrophotometer.

[5] = tested on: HCT116; assay: as above; format: cell-based; settings: Homo sapiens, HCT-116; colon cancer; 48 hours of drug treatment; average of three individual experiments
Excerpt: as §2, §3

[6] = tested on: SKBR3; assay: as above; format: cell-based; settings: Homo sapiens, SK-BR-3; breast cancer; 48 hours of drug treatment; average of three individual experiments
Excerpt: as §2, §3

[7] = tested on: p53; assay: Western blot, p53 expression; format: cell-based; settings: breast cancer cells
Method: The MCF-7, SKBR3 and HCT116 total cell lysate were prepared after 24 hours of treatment with compound it at IC50 and DIC50 doses by using 1× laemmli buffer. Total protein concentration was then estimated for each sample and 15-30 μg of protein lysate were loaded equally on 12% SDS-PAGE gel in order to detect various proteins expression levels. In short, the membrane was incubated with different primary antibodies (as mentioned in above section) (1:1000) overnight after blocking with 5% non-fat milk solution for 1 hour. The membrane was then re-probed with respective mouse/rabbit secondary antibodies (1:2000) for 1 h, and later developed by enhanced chemiluminescence (ECL) method by using a Chemidoc MP (BioRad, Germany).

T2 sequence (Q16881 151-649 limits assumed): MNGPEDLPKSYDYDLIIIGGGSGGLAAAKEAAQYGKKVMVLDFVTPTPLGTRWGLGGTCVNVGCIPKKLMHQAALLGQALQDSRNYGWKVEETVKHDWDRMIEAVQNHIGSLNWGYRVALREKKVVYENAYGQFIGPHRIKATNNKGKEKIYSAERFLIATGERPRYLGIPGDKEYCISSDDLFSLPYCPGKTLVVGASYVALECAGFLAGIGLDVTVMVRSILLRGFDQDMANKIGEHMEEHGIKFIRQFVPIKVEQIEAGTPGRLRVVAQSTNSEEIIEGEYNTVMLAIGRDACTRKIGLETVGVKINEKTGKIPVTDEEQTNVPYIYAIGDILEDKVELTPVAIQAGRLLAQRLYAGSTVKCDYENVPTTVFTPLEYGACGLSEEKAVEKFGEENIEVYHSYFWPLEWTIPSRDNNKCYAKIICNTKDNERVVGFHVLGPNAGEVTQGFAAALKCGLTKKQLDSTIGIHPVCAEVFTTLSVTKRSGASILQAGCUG
T1 sequence (P09622 36-509): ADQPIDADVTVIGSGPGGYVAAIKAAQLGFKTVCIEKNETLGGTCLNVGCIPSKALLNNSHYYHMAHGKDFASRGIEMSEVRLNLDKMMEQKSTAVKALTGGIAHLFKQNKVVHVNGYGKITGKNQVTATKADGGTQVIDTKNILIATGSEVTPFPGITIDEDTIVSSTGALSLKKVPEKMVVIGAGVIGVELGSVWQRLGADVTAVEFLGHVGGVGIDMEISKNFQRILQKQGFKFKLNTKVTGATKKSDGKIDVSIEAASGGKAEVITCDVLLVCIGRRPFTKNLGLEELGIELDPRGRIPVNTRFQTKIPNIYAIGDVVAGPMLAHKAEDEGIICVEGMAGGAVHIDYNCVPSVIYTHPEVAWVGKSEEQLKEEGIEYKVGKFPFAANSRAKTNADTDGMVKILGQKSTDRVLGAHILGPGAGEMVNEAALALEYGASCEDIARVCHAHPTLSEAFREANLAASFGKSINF
T3 sequence (P28838 whole entry): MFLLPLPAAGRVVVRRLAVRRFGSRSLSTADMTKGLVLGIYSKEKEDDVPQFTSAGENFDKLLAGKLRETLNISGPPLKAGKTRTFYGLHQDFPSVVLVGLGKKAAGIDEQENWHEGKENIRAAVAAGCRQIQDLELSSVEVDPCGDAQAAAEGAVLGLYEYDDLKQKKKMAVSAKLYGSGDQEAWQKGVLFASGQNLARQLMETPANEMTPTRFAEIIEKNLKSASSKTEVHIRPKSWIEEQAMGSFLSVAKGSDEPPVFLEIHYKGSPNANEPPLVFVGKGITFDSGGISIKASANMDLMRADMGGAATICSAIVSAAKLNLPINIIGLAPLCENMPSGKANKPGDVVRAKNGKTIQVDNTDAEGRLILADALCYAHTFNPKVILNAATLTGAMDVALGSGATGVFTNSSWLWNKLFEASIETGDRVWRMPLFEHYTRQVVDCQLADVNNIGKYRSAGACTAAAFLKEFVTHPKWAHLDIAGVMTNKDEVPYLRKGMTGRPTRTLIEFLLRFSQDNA

SMILES: CC1(C)[C@H]2COc3ccc4ccccc4c3[C@H]2N=C2SC(c3ccccc3)=C(c3ccccc3)N21 [Compound 1t]
- Regulation of dihydrolipoamide dehydrogenase [1]: regulates this enzyme
- Concentration of highest effect on TrxR [2]: 1 µM
- Modulation of TrxR ([2]; HEK293T lysate, 0.01, 0.1, 1 μM): concentration-dependent modulation
- Targeting of cytosolic aminopeptidase [3]: dose-dependent manner
- IC50 [4]: 1910 nM
- IC50 [5]: 1500 nM
- IC50 [6]: 1900 nM
- Expression of p53 [7]: up-regulation
